System: moderate-to-severe chronic spontaneous urticaria (CSU)
Test: Phase 2 CSU study: urticaria activity score over 7 days (UAS7)
Format: in vivo, human
Parameters: key to UAS7 Median / UAS7 Change from baseline Median / UAS7 change from baseline, Q1 / UAS7 change from baseline, Q3 / UAS7 change from baseline, Max / UAS7 Change from baseline LS Mean (SE): UAS7 points; daily UAS score ranges 0–6 points/day, over 7 days
Source text: The study comprises a 12 week, randomized, double-blind, placebo-controlled, multi-center, dose-ranging efficacy and safety phase, followed by a 40 week open label extension (OLE) phase (see FIG. 1). The study consists of three phases and an optional OLE phase. […] Clinically, CSU is characterized by the spontaneous and recurrent appearance of pruritic hives. The proposed primary endpoints were the UAS7 at Week 12 in EU and EU reference countries and the ISS7 in the US. Regardless of where a participant was from, all assessments were the same. The UAS7 score is a composite score containing both the HSS7 and the ISS7. This allowed a global assessment of the two key components of urticaria: hives and itch. […] The UAS is a validated PRO measure. […] The daily UAS scores range from 0 to 6 point/day. […] Patients were to complete the UAS using the e-diary. […] The following secondary endpoints were to be analyzed using the same approach as for the primary endpoint: • Change from baseline in UAS7 at Week 4 • Change from baseline in UAS7 at Week 12 (for US and US reference countries) • Change from baseline in ISS7 at Week 12 (except US and US reference countries) • Change from baseline in HSS7 at Week 12 The following responder secondary endpoints were to be analyzed using the Cochran-Mantel-Haenszel test adjusted by region: • Proportion of participants with UAS7<6 at Week 12 • Proportion of participants with UAS7=0 at Week 12 Participants who received selected prohibited medications and/or rescue medications were to be considered as non-responders for time points after the medication usage. For other participants, all available data including those collected during the off-treatment period were to be used to determine the responder/non-responder status. Missing data were to be considered as non-responders.

[1] = Week 3, 400 mg TID, Omalizumab-Naïve
[2] = Week 3, 400 mg TID, Prior Omalizumab Use
[3] = Week 3, 400 mg TID, omalizumab-naive participants
[4] = Week 4, 400 mg BID, ITT population
[5] = Week 4, 400 mg BID, Omalizumab-Naïve
[6] = Week 4, 400 mg BID, Prior Omalizumab Use
[7] = Week 4, 400 mg BID, omalizumab-naive participants
[8] = Week 4, 400 mg QPM, ITT population
[9] = Week 4, 400 mg QPM, Omalizumab-Naïve
[10] = Week 4, 400 mg QPM, Prior Omalizumab Use
[11] = Week 4, 400 mg QPM, omalizumab-naive participants
[12] = Week 4, 400 mg TID, ITT population
[13] = Week 4, 400 mg TID, Omalizumab-Naïve
[14] = Week 4, 400 mg TID, Prior Omalizumab Use

CC(C)(C=C(C#N)C(=O)N1CCC[C@@H](n2nc(-c3ccc(Oc4ccccc4)cc3F)c3c(N)ncnc32)C1)N1CCN(C2COC2)CC1 [rilzabrutinib, (R)-2-[3-[4-amino-3-(2-fluoro-4-phenoxy-phenyl)pyrazolo[3,4-d]pyrimidin-1-yl]piperidine-1-carbonyl]-4-methyl-4-[4-(oxetan-3-yl)piperazin-1-yl]pent-2-enenitrile]
UAS7 Percent change from baseline Mean (SD) [1]: −48.87 (33.07) % | UAS7 Percent change from baseline Median [1]: −48.08% | UAS7 Change from baseline Mean (SD) [2]: −24.14 (11.99) | UAS7 Change from baseline Median [2]: −24.50 | UAS7 Median [2]: 7.67 | UAS7 Percent change from baseline Mean (SD) [2]: −71.37 (19.75) % | UAS7 Percent change from baseline Median [2]: −64.58% | Non-responder, UAS7 reduction from baseline of 10 points or more [3]: 14 (40.0) n (%) | OR for rilzabrutinib vs. placebo, UAS7 reduction of 10 points or more [3]: 2.949 | RRD (%) for rilzabrutinib vs. placebo, UAS7 reduction of 10 points or more [3]: 27.1 % | Responder, UAS7 reduction from baseline of 10 points or more [3]: 21 (60.0) n (%) | Non-responder, UAS7 reduction from baseline of 10 points or more [4]: 19 (46.3) n (%) | OR for rilzabrutinib vs. placebo, UAS7 reduction of 10 points or more [4]: 1.853 | RRD (%) for rilzabrutinib vs. placebo, UAS7 reduction of 10 points or more [4]: 14.7 % | Responder, UAS7 reduction from baseline of 10 points or more [4]: 22 (53.7) n (%) | UAS7 Change from baseline Mean (SD) [5]: −13.49 (10.97) | UAS7 Change from baseline Median [5]: −11.00 | UAS7 Mean (SD) [5]: 15.92 (11.71) | UAS7 Median [5]: 14.00 | UAS7 Percent change from baseline Mean (SD) [5]: −46.55 (35.69) % | UAS7 Percent change from baseline Median [5]: −41.94% | UAS7 Change from baseline Mean (SD) [6]: −21.80 (16.62) | UAS7 Change from baseline Median [6]: −26.00 | UAS7 Mean (SD) [6]: 13.60 (16.55) | UAS7 Median [6]: 3.00 | UAS7 Percent change from baseline Mean (SD) [6]: −62.33 (45.90) % | UAS7 Percent change from baseline Median [6]: −91.43% | Non-responder, UAS7 reduction from baseline of 10 points or more [7]: 17 (48.6) n (%) | OR for rilzabrutinib vs. placebo, UAS7 reduction of 10 points or more [7]: 2.046 | RRD (%) for rilzabrutinib vs. placebo, UAS7 reduction of 10 points or more [7]: 16.8 % | Responder, UAS7 reduction from baseline of 10 points or more [7]: 18 (51.4) n (%) | Non-responder, UAS7 reduction from baseline of 10 points or more [8]: 23 (60.5) n (%) | OR for rilzabrutinib vs. placebo, UAS7 reduction of 10 points or more [8]: 1.224 | RRD (%) for rilzabrutinib vs. placebo, UAS7 reduction of 10 points or more [8]: 4.4 % | Responder, UAS7 reduction from baseline of 10 points or more [8]: 15 (39.5) n (%) | UAS7 Change from baseline Mean (SD) [9]: −9.18 (9.24) | UAS7 Change from baseline Median [9]: −7.00 | UAS7 Mean (SD) [9]: 21.92 (8.82) | UAS7 Median [9]: 21.00 | UAS7 Percent change from baseline Mean (SD) [9]: −27.91 (26.53) % | UAS7 Percent change from baseline Median [9]: −21.88% | UAS7 Change from baseline Mean (SD) [10]: −23.00 (NC) | UAS7 Change from baseline Median [10]: −23.00 | UAS7 Mean (SD) [10]: 18.00 (NC) | UAS7 Median [10]: 18.00 | UAS7 Percent change from baseline Mean (SD) [10]: −56.10 (NC) % | UAS7 Percent change from baseline Median [10]: −56.10% | Non-responder, UAS7 reduction from baseline of 10 points or more [11]: 23 (62.2) n (%) | OR for rilzabrutinib vs. placebo, UAS7 reduction of 10 points or more [11]: 1.322 | RRD (%) for rilzabrutinib vs. placebo, UAS7 reduction of 10 points or more [11]: 6.0 % | Responder, UAS7 reduction from baseline of 10 points or more [11]: 14 (37.8) n (%) | Non-responder, UAS7 reduction from baseline of 10 points or more [12]: 12 (29.3) n (%) | OR for rilzabrutinib vs. placebo, UAS7 reduction of 10 points or more [12]: 3.520 | RRD (%) for rilzabrutinib vs. placebo, UAS7 reduction of 10 points or more [12]: 29.4 % | Responder, UAS7 reduction from baseline of 10 points or more [12]: 29 (70.7) n (%) | UAS7 Change from baseline Mean (SD) [13]: −15.51 (9.79) | UAS7 Change from baseline Median [13]: −14.00 | UAS7 Mean (SD) [13]: 14.65 (9.61) | UAS7 Median [13]: 14.00 | UAS7 Percent change from baseline Mean (SD) [13]: −51.19 (29.70) % | UAS7 Percent change from baseline Median [13]: −51.09% | UAS7 Change from baseline Mean (SD) [14]: −22.94 (13.84) | UAS7 Change from baseline Median [14]: −22.50 | UAS7 Mean (SD) [14]: 10.08 (10.62) | UAS7 Median [14]: 8.58 | UAS7 Percent change from baseline Mean (SD) [14]: −67.07 (27.75) %
